Source: patent US10144742B2 (Millennium Pharmaceuticals, Inc., priority 2014, dated 2018)
Where two headings read alike, the source gives them in different places.

What was measured:
PC3 cells = test: PC3 growth inhibition (Cell-titer glo, 72 hours); assay type: cell-based; settings: Homo sapiens, PC-3, PC3 cells, 72 hours, Cell-titer glo, read-out: Percent Inhibition (PC3 growth inhibition); for inhibition at 1.667 µM: compound concentration 1.667 μM; for inhibition at 1 µM: compound concentration 1 μM
In short: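 PC3 cells in RPMI1640 seeded overnight at 37 °C, 5% CO2, then exposed to compound diluted in AIM serum-free medium for 72 h. Viability by CellTiter-Glo luminescence vs DMSO controls; single-concentration % remaining viability (1 μM or 1.667 μM), or GI50/LD50 from curves.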

hNAMPT protein = hNAMPT protein (Homo sapiens (Human), UniProt P43490); test: NAMPT enzyme assay (TR-FRET/HTRF, BodiPY ligand, anti 6His-Tb); assay type: binding; settings: for IC50: read-out: IC50; for inhibition at 1 µM: read-out: Percent Inhibition
Chain of hNAMPT protein (P43490 whole entry): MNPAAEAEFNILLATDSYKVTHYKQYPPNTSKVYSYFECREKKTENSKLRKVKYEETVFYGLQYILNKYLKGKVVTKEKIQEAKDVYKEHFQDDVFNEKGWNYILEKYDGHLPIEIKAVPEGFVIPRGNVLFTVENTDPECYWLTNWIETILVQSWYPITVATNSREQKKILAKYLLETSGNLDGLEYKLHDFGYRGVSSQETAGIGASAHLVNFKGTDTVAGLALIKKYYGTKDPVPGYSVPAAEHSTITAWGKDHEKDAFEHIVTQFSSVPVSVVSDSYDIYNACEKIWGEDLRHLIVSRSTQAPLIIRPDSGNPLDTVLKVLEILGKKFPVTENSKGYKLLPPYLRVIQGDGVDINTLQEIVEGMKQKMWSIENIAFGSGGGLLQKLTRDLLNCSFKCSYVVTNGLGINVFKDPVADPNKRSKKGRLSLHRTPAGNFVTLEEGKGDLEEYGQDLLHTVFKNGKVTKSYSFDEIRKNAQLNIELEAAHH
In short: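 TR-FRET binding assay in which His-tagged human NAMPT with anti-6His-Tb is displaced by compound from a BodiPY ligand, incubated 1 h at rt in the dark. Excitation was at 320 nm, with the 520/486 nm emission ratio read. IC50 was fitted from inhibition relative to DMSO controls.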

[1] = NAMPT inhibition at compound concentration 1 μM
[2] = NAMPT inhibition, IC50 range class

Work on `Cn1cncc1CCNC(=O)c1ccc2nc(N3CCC(O)CC3)c(-c3ccc(F)cc3)nc2c1` [Compound I-292, 3-(4-fluorophenyl)-2-(4-hydroxypiperidin-1-yl)-N-[2-(1-methyl-1H-imidazol-5-yl)ethyl]quinoxaline-6-carboxamide] yielded an inhibition at 1.667 µM (PC3 cells) of 2%, an IC50 (hNAMPT protein; NAMPT IC50 range class) of less than 100 nM and an inhibition at 1 µM (hNAMPT protein; compound concentration 1 μM) of 90%.
`CC(C)Sc1nc2ccc(C(=O)NCCCc3ncc[nH]3)cc2nc1-c1ccc(F)cc1` [Compound I-375, 3-(4-Fluorophenyl)-N-[3-(1H-imidazol-2-yl)propyl]-2-(isopropylsulfanyl)quinoxaline-6-carboxamide] showed an inhibition at 1.667 µM (PC3 cells) of 2%, an IC50 (hNAMPT protein; NAMPT IC50 range class) of 100 to 500 nM and an inhibition at 1 µM (hNAMPT protein; compound concentration 1 μM) of 80%.
`CC(C)(C)OC(=O)N1CCC(C2CCN(c3nc4ccc(C(=O)NCCn5ccnc5)cc4nc3-c3ccccc3)CC2)CC1` [Compound I-239, tert-Butyl 1′-(6-{[2-(1H-imidazol-1-yl)ethyl]carbamoyl}-3-phenylquinoxalin-2-yl)-4,4′-bipiperidine-1-carboxylate] gave an inhibition at 1 µM (PC3 cells) of 14%, an IC50 (hNAMPT protein; NAMPT IC50 range class) of 2000 to 10000 nM and an inhibition at 1 µM (hNAMPT protein; compound concentration 1 μM) of 25%.
`CC(C)COc1nc2ccc(C(=O)NCCCc3ncc[nH]3)cc2nc1-c1ccc(F)cc1` [Compound I-478, 3-(4-fluorophenyl)-N-[3-(1H-imidazol-2-yl)propyl]-2-isobutoxyquinoxaline-6-carboxamide] showed an inhibition at 1.667 µM (PC3 cells) of 2%, an inhibition at 1 µM (hNAMPT protein; [1]) of 96% and an IC50 (hNAMPT protein; [2]) of less than 100 nM.
With `COc1ccccc1-c1nc2ccc(C(=O)NCCCn3ccnc3)cc2nc1-c1ccccc1` [Compound I-13, N-[3-(1H-imidazol-1-yl)propyl]-2-(2-methoxyphenyl)-3-phenylquinoxaline-6-carboxamide] the inhibition at 1 µM (PC3 cells) was -6%, the IC50 (hNAMPT protein; NAMPT IC50 range class) was 100 to 500 nM and the inhibition at 1 µM (hNAMPT protein; compound concentration 1 μM) was 69%.
`CN(CCc1cccnc1)C(=O)c1ccc2nc(-c3ccc(F)cc3)c(-c3ccc(F)cc3)nc2c1` [Compound I-84, 2,3-bis(4-fluorophenyl)-N-methyl-N-[2-(pyridin-3-yl)ethyl]quinoxaline-6-carboxamide] was tested, and the inhibition at 1 µM (PC3 cells) was 85%, the IC50 (hNAMPT protein; NAMPT IC50 range class) was 2000 to 10000 nM and the inhibition at 1 µM (hNAMPT protein; compound concentration 1 μM) was 17%.
For `O=C(NCCCc1ncc[nH]1)c1ccc2nc(-c3ccc(F)cc3)c(-c3ccc(Cl)cc3F)nc2c1` [Compound I-455, 3-(4-chloro-2-fluorophenyl)-2-(4-fluorophenyl)-N-[3-(1H-imidazol-2-yl)propyl]quinoxaline-6-carboxamide], the inhibition at 1.667 µM (PC3 cells) was 3%, the inhibition at 1 µM (hNAMPT protein; [1]) was 80% and the IC50 (hNAMPT protein; [2]) was 100 to 500 nM.
`COc1cccc(-c2nc3ccc(C(=O)NCCCn4ccnc4)cc3nc2-c2cccc(OC)c2)c1` [Compound I-52, N-[3-(1H-imidazol-1-yl)propyl]-2,3-bis(3-methoxyphenyl)quinoxaline-6-carboxamide] showed an inhibition at 1 µM (PC3 cells) of 0%, an IC50 (hNAMPT protein; NAMPT IC50 range class) of less than 100 nM and an inhibition at 1 µM (hNAMPT protein; compound concentration 1 μM) of 103%.
In the case of `Cn1cc(COc2nc3ccc(C(=O)NCCCc4ncc[nH]4)cc3nc2-c2ccc(F)cc2)cn1` [Compound I-332, 3-(4-fluorophenyl)-N-[3-(1H-imidazol-2-yl)propyl]-2-[(1-methyl-1H-pyrazol-4-yl)methoxy]quinoxaline-6-carboxamide], the inhibition at 1.667 µM (PC3 cells) is reported as 34%, the IC50 (hNAMPT protein; NAMPT IC50 range class) is reported as less than 100 nM and the inhibition at 1 µM (hNAMPT protein; compound concentration 1 μM) is reported as greater than 99%.
`O=C(NCc1ccc2nccn2c1)c1ccc2nc(N3CCC(N4CCOCC4)CC3)c(-c3ccc(F)cc3)nc2c1` [Compound I-64, 3-(4-fluorophenyl)-N-(imidazo[1,2-a]pyridin-6-ylmethyl)-2-[4-(morpholin-4-yl)piperidin-1-yl]quinoxaline-6-carboxamide] gave an inhibition at 1.852 µM (PC3 cells; compound concentration 1.852 μM) of 2%, an IC50 (hNAMPT protein; NAMPT IC50 range class) of less than 100 nM and an inhibition at 1 µM (hNAMPT protein; compound concentration 1 μM) of 98%.
For `O=C(NCCCn1ccnc1)c1ccc2nc(N3CCCCC3)c(-c3ccccc3)nc2c1` [Compound I-161, N-[3-(1H-imidazol-1-yl)propyl]-3-phenyl-2-(piperidin-1-yl)quinoxaline-6-carboxamide], the inhibition at 1 µM (PC3 cells) was -7%, the IC50 (hNAMPT protein; NAMPT IC50 range class) was less than 100 nM and the inhibition at 1 µM (hNAMPT protein; compound concentration 1 μM) was 89%.
`O=C(NCCn1ccnc1)c1ccc2nc(-c3ccc(F)cc3)c(-c3ccc(F)cc3)nc2c1` [Compound I-270, 2,3-bis(4-fluorophenyl)-N-[2-(1H-imidazol-1-yl)ethyl]quinoxaline-6-carboxamide] gave an inhibition at 1 µM (PC3 cells) of 111%, an IC50 (hNAMPT protein; NAMPT IC50 range class) of 1000 to 2000 nM and an inhibition at 1 µM (hNAMPT protein; compound concentration 1 μM) of 47%.
`O=C(NCCc1cccnc1)c1ccc2nc(-c3ccc(F)cc3)c(-c3ccc(F)cc3)nc2c1` [Compound I-269, 2,3-bis(4-fluorophenyl)-N-[2-(pyridin-3-yl)ethyl]quinoxaline-6-carboxamide] was tested, and the inhibition at 1 µM (PC3 cells) was 0%, the IC50 (hNAMPT protein; NAMPT IC50 range class) was 100 to 500 nM and the inhibition at 1 µM (hNAMPT protein; compound concentration 1 μM) was 73%.
With `CC1(C)CN(c2nc3cc(C(=O)NCCCn4ccnc4)ccc3nc2-c2ccccc2)CCO1` [Compound I-113, 3-(2,2-dimethylmorpholin-4-yl)-N-[3-(1H-imidazol-1-yl)propyl]-2-phenylquinoxaline-6-carboxamide] the inhibition at 1 µM (PC3 cells) was -8%, the IC50 (hNAMPT protein; NAMPT IC50 range class) was 500 to 1000 nM and the inhibition at 1 µM (hNAMPT protein; compound concentration 1 μM) was 64%.
Work on `O=C(NCCCc1ncc[nH]1)c1ccc2nc(OC3COC3)c(-c3ccc(Cl)cc3)nc2c1` [Compound I-318, 3-(4-chlorophenyl)-N-[3-(1H-imidazol-2-yl)propyl]-2-(oxetan-3-yloxy)quinoxaline-6-carboxamide] yielded an inhibition at 1.667 µM (PC3 cells) of 2%, an IC50 (hNAMPT protein; NAMPT IC50 range class) of less than 100 nM and an inhibition at 1 µM (hNAMPT protein; compound concentration 1 μM) of 97%.
With `O=C(NCCc1ncc[nH]1)c1ccc2nc(N3CCCCC3)c(-c3ccc(F)cc3)nc2c1` [Compound I-1, 3-(4-Fluorophenyl)-N-[2-(1H-imidazol-2-yl)ethyl]-2-(piperidin-1-yl)quinoxaline-6-carboxamide] the inhibition at 1.667 µM (PC3 cells) was 3%, the IC50 (hNAMPT protein; NAMPT IC50 range class) was 500 to 1000 nM and the inhibition at 1 µM (hNAMPT protein; compound concentration 1 μM) was 51%.
In the case of `COc1nc2ccc(C(=O)NCCCc3ncc[nH]3)cc2nc1-c1ccc(Cl)cc1` [Compound I-109, 3-(4-chlorophenyl)-N-[3-(1H-imidazol-2-yl)propyl]-2-methoxyquinoxaline-6-carboxamide], the inhibition at 1.667 µM (PC3 cells) is reported as 36%, the IC50 (hNAMPT protein; NAMPT IC50 range class) is reported as less than 100 nM and the inhibition at 1 µM (hNAMPT protein; compound concentration 1 μM) is reported as 97%.
Work on `O=C(NCCCn1ccnc1)c1ccc2nc(-c3ccccc3)c(N3CCCCC3)nc2c1` [Compound I-166, N-[3-(1H-imidazol-1-yl)propyl]-2-phenyl-3-(piperidin-1-yl)quinoxaline-6-carboxamide] yielded an inhibition at 1 µM (PC3 cells) of 5%, an IC50 (hNAMPT protein; NAMPT IC50 range class) of 2000 to 10000 nM and an inhibition at 1 µM (hNAMPT protein; compound concentration 1 μM) of 31%.
`Cn1cccc1-c1nc2cc(C(=O)NCCCn3ccnc3)ccc2nc1-c1ccccc1` [Compound I-194, N-[3-(1H-imidazol-1-yl)propyl]-3-(1-methyl-1H-pyrrol-2-yl)-2-phenylquinoxaline-6-carboxamide] showed an inhibition at 1 µM (PC3 cells) of 29%, an IC50 (hNAMPT protein; NAMPT IC50 range class) of 2000 to 10000 nM and an inhibition at 1 µM (hNAMPT protein; compound concentration 1 μM) of 30%.
Work on `Nc1ccc(CCCNC(=O)c2ccc3nc(N4CCOCC4)c(-c4ccc(F)cc4)nc3c2)cn1` [Compound I-362, N-[3-(6-aminopyridin-3-yl)propyl]-3-(4-fluorophenyl)-2-(morpholin-4-yl)quinoxaline-6-carboxamide] yielded an inhibition at 1.667 µM (PC3 cells) of 2%, an IC50 (hNAMPT protein; NAMPT IC50 range class) of 100 to 500 nM and an inhibition at 1 µM (hNAMPT protein; compound concentration 1 μM) of 74%.
With `O=C(NCCCc1ncc[nH]1)c1ccc2nc(-c3ccc(F)cc3)c(-c3ccc(Cl)c(C(F)(F)F)c3)nc2c1` [Compound I-369, 3-[4-chloro-3-(trifluoromethyl)phenyl]-2-(4-fluorophenyl)-N-[3-(1H-imidazol-2-yl)propyl]quinoxaline-6-carboxamide] the inhibition at 1.667 µM (PC3 cells) was 2%, the IC50 (hNAMPT protein; NAMPT IC50 range class) was less than 100 nM and the inhibition at 1 µM (hNAMPT protein; compound concentration 1 μM) was 93%.
Compound `CCc1nc2ccc(C(=O)NCCCc3ncc[nH]3)cc2nc1-c1ccc(F)cc1` [Compound I-307, 2-ethyl-3-(4-fluorophenyl)-N-[3-(1H-imidazol-2-yl)propyl]quinoxaline-6-carboxamide] has an inhibition at 1.667 µM (PC3 cells) of 4%, an IC50 (hNAMPT protein; NAMPT IC50 range class) of 100 to 500 nM and an inhibition at 1 µM (hNAMPT protein; compound concentration 1 μM) of 73%.
`O=C(NCCCc1ncc[nH]1)c1ccc2nc(N3CCCCC3)c(-c3cccs3)nc2c1` [Compound I-195, N-[3-(1H-imidazol-2-yl)propyl]-2-(piperidin-1-yl)-3-(2-thienyl)quinoxaline-6-carboxamide] showed an inhibition at 1.667 µM (PC3 cells) of 2%, an IC50 (hNAMPT protein; NAMPT IC50 range class) of less than 100 nM and an inhibition at 1 µM (hNAMPT protein; compound concentration 1 μM) greater than 99%.
`CCOC(=O)CCc1ccc(-c2nc3ccc(C(=O)NCCCn4ccnc4)cc3nc2-c2ccccc2)cc1` [Compound I-205, ethyl 3-[4-(6-{[3-(1H-imidazol-1-yl)propyl]carbamoyl}-3-phenylquinoxalin-2-yl)phenyl]propanoate] showed an inhibition at 1 µM (PC3 cells) of 104%, an IC50 (hNAMPT protein; NAMPT IC50 range class) of 100 to 500 nM and an inhibition at 1 µM (hNAMPT protein; compound concentration 1 μM) of 84%.
`O=C(NCc1ccc2nccn2c1)c1ccc2nc(N3CCCCC3)c(-c3ccc(F)cc3)nc2c1` [Compound I-170] showed an inhibition at 1.667 µM (PC3 cells) of 2%, an IC50 (hNAMPT protein; NAMPT IC50 range class) of less than 100 nM and an inhibition at 1 µM (hNAMPT protein; compound concentration 1 μM) of 98%.
`CC(C)Oc1nc2ccc(C(=O)NCCCc3ncc[nH]3)cc2nc1-c1ccc(F)c(Cl)c1` [Compound I-435, 3-(3-chloro-4-fluorophenyl)-N-[3-(1H-imidazol-2-yl)propyl]-2-isopropoxyquinoxaline-6-carboxamide] was tested, and the inhibition at 1.667 µM (PC3 cells) was 0%, the inhibition at 1 µM (hNAMPT protein; [1]) was 93% and the IC50 (hNAMPT protein; [2]) was less than 100 nM.
With `COC1CC(Oc2nc3ccc(C(=O)NCCCc4ncc[nH]4)cc3nc2-c2ccc(F)cc2)C1` (stereo not drawn) [Compound I-427, 3-(4-fluorophenyl)-N-[3-(1H-imidazol-2-yl)propyl]-2-[(3-methoxycyclobutyl)oxy]quinoxaline-6-carboxamide] the inhibition at 1.667 µM (PC3 cells) was 2%, the inhibition at 1 µM (hNAMPT protein; [1]) was 99% and the IC50 (hNAMPT protein; [2]) was less than 100 nM.
